Values after ≈ are worked out from the molar mass of the structure shown.
What was measured:
[1] = system: bone cancer pain model in rat (Walker 256 cells); assay: Paw withdrawal thermal latency (PWL) in bone cancer pain model; type: in vivo, SD rats; conditions: twice daily for 3 days, PWL at 2 h after last administration (21d)
Experimental: 1. Animals 50 SD rats (180-220 g), placed under a quiet and warm (22° C.) environment without strong light irradiation, having free access to feed and water.
2. Cell Culture: SD Rat homologous cancer cell strains Walker 256 preserved by the Laboratory Animal Center, Forth Military Medical
University, or a commercially available product can be used. RPMI 1640 culture medium (Gibco Inc. of US, containing 100 U/ml each of 10% fetal bovine serum, penicillin, and streptomycin) was used, and the tumor cells were incubated as suspension cells in a 37° C. incubator under 5% CO2, with the medium replaced every other day, and 2 days for 1 passage. The cells were harvested at the 3rd passage, with a cell concentration of 2×10^5/10 μl.
3. Establishment of bone cancer pain model in rat: the rats were operated at the left knee with a small incision after anesthesia (40 mg/kg of pentobarbital sodium) according to sterile surgical operation procedures, the muscle was stripped off gently and the patellar ligament is cut open to expose the distal femur, with 1 mm syringe needle inserted from the intercondylar fossa vertically into the marrow cavity, with an inserting distance no more than 5 mm to prevent punching. Then a 20 μl micro-injector was inserted into the marrow cavity to slowly inject 10 μl of a suspension containing the Walker 256 cells (2×10^5 cancer cells per 10 μl). The injector was stayed there for a few minutes after the injection, and then the needle pinhole was immediately sealed with sterile bone wax. The tumor cells leaking out of the marrow cavity were killed with 75% ethyl alcohol, and then the rat was sutured under sterile conditions layer by layer. The same operation was performed in the sham operation group, except that only the same volume of sterile saline was injected into the marrow cavity slowly.
6. Drug intervention: On day 18 after the surgical operation, the SD rats of the operation group were randomized into 6 groups, i.e., respectively the model group; non-crystalline NB001 group (20 mg/kg, i.g.); the group of the crystal of the present invention (20 mg/kg, i.g.); morphine (2 mg/kg, i.p.); and gabapentin (100 mg/kg, i.g.). The new crystal form and non-crystalline form of the AC1 inhibitor NB001 were both formulated with sterile saline, and morphine and gabapentin were used as positive control drugs. All drugs were administered twice daily for 3 days, and the pain threshold was measured within 2 hours after the last administration on day 3
7. Assessment of rat pain behavior:
Paw withdrawal thermal latency (PWL): the PWL was measured by using a PL-200 thermal pain stimulator (8V, 50 W, with a strength of 100%). The time period since the time irradiating the middle portion of the planta pedis at the operation side of the rat with light till the time the rat lifted its leg to keep out of the light was TWL. To prevent tissue injury, a cut-off time of 80 s was set, each rat was measured for 3 times with an interval of 5 min, and the results were averaged.

[2] = system: mice treated with yeast polysaccharide; assay: Visceral pain behavior test in chronic visceral pain model; type: in vivo; conditions: for Number of visceral pain scores: 28 days after yeast polysaccharide treatment
Experimental: Chronic Visceral Pain Model
(§1) The visceral pain is induced by injecting yeast polysaccharide into the mice colony, and the yeast polysaccharide is derived from Saccharomyces cerevisiae (Sigma), wherein one kind of dextran is resident on the cell wall of the yeast and is identified as a protein-carbohydrate complex. Specifically, the mice were anesthetized after inhaling 1-3% isoflurane, and then a […] suspension of yeast polysaccharide (formulated as a 30 mg/ml solution in physiological saline) was injected into the colon of the mice by using a 24 mm long plastic feed needle within 2 minutes. The control group was injected with 0.1 ml physiological saline. The yeast polysaccharide or physiological saline was injected daily for 3 days. A visceral pain behavior test was carried out according to the Laird procedure. The number of times the mice licking the abdomen within 10 minutes was recorded, excluding other grooming behaviors, stretching of whole body, pressing the abdomen against the floor, and an 1-2-second arched posture. On day 1, 7 and 14 after the injection into the colon, an open field test was carried out from 9 am to 12 pm, and the entire test was a double-blind test. Prior to the behavioral test, the mice were acclimated for 30 minutes in an observation room. The mice were placed at the middle of a new open zone (43.2×43.2×30.5 cm^3) with micro light (<50 lux) and a fan. The movement distance, vertical count, movement count, stereotypic behavior count, and jumping count of animals were recorded within 30 minutes by means of an activity monitoring system equipped with multiple pairs of packaged light beam sets.
The physiological saline, non-crystalline NB001 (3 mg/kg), the crystal of the present invention (3 mg/kg), and Gabapentin (30 mg/kg) as a positive control were intraperitoneally injected (IP) into the mice treated with yeast polysaccharide respectively. The behaviors of Mice were observed 28 days after the yeast polysaccharide treatment.

[3] = system: mice treated with yeast polysaccharide; assay: Elevated plus maze test (EPM), visceral pain; type: in vivo; conditions: for % time in the open arm: Visceral pain
Experimental: as §1
(§2) An anxious animal model of the prior art—the elevated plus maze test (EPM) was adopted. The mice were acclimated for 30 minutes in the room prior to the behavior observation. The EPM was composed of two open arms (250 lux) and two closed arms (350 lux) arranged opposite to each other. For each test, an individual animal was placed at the center of the test position and allowed to move freely. The test is carried out for 5 minutes. The number of entering the test position for each arm and the time spent therefore were recorded.
(§3) The EPM test tested the anxiety behavior of mice after the test treatment. The physiological saline, non-crystalline NB001 (3 mg/kg), the crystal of the present invention (3 mg/kg), and Gabapentin (30 mg/kg) as a positive control were intraperitoneally injected (IP) into the mice treated with yeast polysaccharide respectively. The behaviors of Mice were observed 28 days after the yeast polysaccharide treatment.

[4] = system: mice treated with yeast polysaccharide; assay: Bright/dark box test, visceral pain; type: in vivo; conditions: for % time in the open arm: Bright/dark box test, Visceral pain
Experimental: as §1
Bright/dark box test: The test procedure was carried out by using an improved method in accordance with the prior art. The device was composed of a rectangular organic glass box (44×8.5×25 cm^3), which is separated into bright and dark compartments with the equal size by using a door. A 60 watt lamp (400 lux) in turn-on state was placed at 30 cm above the box to irradiate the bright compartment. Each animal was first placed in the dark compartment for 20 seconds, and then the door leading to the bright compartment was open. The time each animal stayed in the dark compartment and the time each animal enters the bright compartment within 10 minutes were recorded.
In order to confirm the effect of the crystal of the present invention on inhibiting anxiety, mice were subjected to a bright/dark box test, and the results were as shown in Table 8. The physiological saline, non-crystalline NB001 (3 mg/kg), the crystal of the present invention (3 mg/kg), and Gabapentin (30 mg/kg) as a positive control were intraperitoneally injected (IP) into the mice treated with yeast polysaccharide respectively. The behaviors of Mice were observed 28 days after the yeast polysaccharide treatment.

[5] = system: mice after neuropathic pain; assay: Elevated plus maze test (EPM), neuropathic pain; type: in vivo
Experimental: as §2
The other two sets of tests were conducted to test the effect of the crystal of the present invention on inhibiting anxiety caused by chronic pain and neuropathic pain.
as §3

[6] = system: mice after neuropathic pain; assay: Bright/dark box test, neuropathic pain; type: in vivo
[7] = Approximate solubility of BPCs in organic solvent and mixed solvent; type: physicochemical; conditions: organic solvent or mixture, thermodynamic from solid
Experimental: Into 7 mL vials were weighed 2.0 mg of the raw material respectively. Then appropriate amount of methanol, ethanol, isopropyl alcohol, n-butanol, acetonitrile, acetone, ethyl acetate, 2-methyl tetrahydrofuran, tetrahydrofuran, dioxane, n-pentyl alcohol, toluene, isopropyl alcohol+water (with a mass ratio of 3:1), acetonitrile+water (with a mass ratio of 3:1), acetone+water (with a mass ratio of 3:1), and ethanol+water (with a mass ratio of 3:1) were added into respective vials, and the mixture was shaken rapidly to dissolve the compound of the mixture until the solution becomes clear. The approximate solubility of the resultant bulk pharmaceutical chemicals (BPC) in an organic solvent and a mixed solvent was shown in Table 1 below.

[8] = molecular target: adenylate cyclase 1 (Homo sapiens, UniProt Q08828); conditions: described in WO2007/041863; cited from earlier work
Chain of adenylate cyclase 1 (Q08828 whole entry): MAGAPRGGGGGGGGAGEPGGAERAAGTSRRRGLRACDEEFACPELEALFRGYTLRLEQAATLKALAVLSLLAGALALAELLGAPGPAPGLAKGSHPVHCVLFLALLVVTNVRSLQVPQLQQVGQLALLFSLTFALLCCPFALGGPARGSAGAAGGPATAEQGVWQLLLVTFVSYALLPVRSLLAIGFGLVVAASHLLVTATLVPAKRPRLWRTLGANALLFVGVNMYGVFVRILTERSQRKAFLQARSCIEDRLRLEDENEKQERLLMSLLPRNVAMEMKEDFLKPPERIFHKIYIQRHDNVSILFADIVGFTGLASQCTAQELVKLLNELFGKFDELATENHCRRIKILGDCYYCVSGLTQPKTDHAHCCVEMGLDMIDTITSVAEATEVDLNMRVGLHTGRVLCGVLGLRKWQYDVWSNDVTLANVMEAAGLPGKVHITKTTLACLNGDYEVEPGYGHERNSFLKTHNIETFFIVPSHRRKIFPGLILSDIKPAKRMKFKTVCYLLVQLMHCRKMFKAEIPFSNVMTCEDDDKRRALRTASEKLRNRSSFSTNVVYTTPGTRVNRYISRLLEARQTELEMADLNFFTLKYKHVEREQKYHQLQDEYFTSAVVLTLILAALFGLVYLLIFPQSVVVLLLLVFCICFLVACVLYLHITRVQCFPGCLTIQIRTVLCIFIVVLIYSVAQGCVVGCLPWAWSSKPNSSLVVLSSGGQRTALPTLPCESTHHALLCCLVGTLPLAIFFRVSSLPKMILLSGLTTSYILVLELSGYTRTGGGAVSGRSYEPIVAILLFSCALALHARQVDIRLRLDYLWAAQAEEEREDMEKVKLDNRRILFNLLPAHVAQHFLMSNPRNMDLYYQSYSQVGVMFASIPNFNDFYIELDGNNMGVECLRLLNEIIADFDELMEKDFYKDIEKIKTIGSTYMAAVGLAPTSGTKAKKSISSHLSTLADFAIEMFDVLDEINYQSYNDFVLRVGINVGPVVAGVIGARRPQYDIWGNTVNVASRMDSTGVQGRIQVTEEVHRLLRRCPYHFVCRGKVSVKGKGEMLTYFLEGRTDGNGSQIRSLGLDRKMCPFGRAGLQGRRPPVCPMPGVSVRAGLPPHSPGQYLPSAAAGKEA

Nc1ncnc2c1ncn2CCNCCCCCO [Old NB001, 5-(((2-(6-amino)-9H-purin-9-yl)ethyl)amino)pentan-1-ol]
analgesic effect (PWL) as compared with the model group ([1]; 20 mg/kg, i.g.): better analgesic effect
Number of visceral pain scores ([2]; 3 mg/kg IP): 19.6 ± 1.2
therapeutic effect on chronic pain as compared with the positive control group ([2]; 3 mg/kg IP, Table 6, listed as non-crystalline NB001): significant therapeutic effects
therapeutic effect in EPM test as compared with the positive control group ([3]; 3 mg/kg IP, Table 7, listed as non-crystalline NB001): significant therapeutic effects
therapeutic effect in bright/dark box test as compared with the positive control group ([4]; 3 mg/kg IP, Table 8, listed as non-crystalline NB001): significant therapeutic effects

CN1CC[C@]23c4c5ccc(O)c4O[C@H]2[C@@H](O)C=C[C@H]3[C@H]1C5 [morphine, reference compound]
analgesic effect (PWL) as compared with the model group ([1]; 2 mg/kg, i.p.): better analgesic effect

NCC1(CC(=O)O)CCCCC1 [Gabapentin, gabapentin, reference compound]
analgesic effect (PWL) as compared with the model group ([1]; 100 mg/kg, i.g.): better analgesic effect
Number of visceral pain scores ([2]; 30 mg/kg IP): 20.7 ± 1.9
% time in the open arm ([5]; 30 mg/kg IP): 9.6 ± 1.5 (7) %
% time in the open arm ([3]; 30 mg/kg IP): 8.6 ± 1.5 (8) %
% time in the open arm ([6]; 30 mg/kg IP): 9.6 ± 1.5 (7) %
% time in the open arm ([4]; 30 mg/kg IP): 8.6 ± 1.5 (8) %

Nc1ncnc2c1ncn2CCNCCCCCO [NB001, 5-(((2-(6-amino)-9H-purin-9-yl)ethyl)amino)pentan-1-ol]
solubility ([7]; 2-methyl tetrahydrofuran): < 2000 µg/mL
solubility ([7]; acetone): < 2000 µg/mL
solubility ([7]; acetone/water (mass ratio 3:1)): 100000 to 200000 µg/mL
solubility ([7]; acetonitrile): < 2000 µg/mL
solubility ([7]; acetonitrile/water (mass ratio 3:1)): 100000 to 200000 µg/mL
solubility ([7]; dioxane): < 2000 µg/mL
solubility ([7]; ethanol): 7000 to 10000 µg/mL (≈ 26.5 to 37.8 mM)
solubility ([7]; ethanol/water (mass ratio 3:1)): 100000 to 200000 µg/mL
solubility ([7]; ethyl acetate): < 2000 µg/mL
solubility ([7]; isopropyl alcohol): ~2000 µg/mL (≈ 7.57 mM)
solubility ([7]; isopropyl alcohol/water (mass ratio 3:1)): 70000 to 100000 µg/mL
solubility ([7]; methanol): 50000 to 66000 µg/mL (≈ 189 to 250 mM)
solubility ([7]; n-butanol): 2200 to 2500 µg/mL (≈ 8.32 to 9.46 mM)
solubility ([7]; n-pentyl alcohol): 3000 to 4000 µg/mL (≈ 11.3 to 15.1 mM)
solubility ([7]; tetrahydrofuran): < 2000 µg/mL
solubility ([7]; toluene): < 2000 µg/mL
% time in the open arm ([5]; 3 mg/kg IP, 3 mg/kg): 10.1 ± 1.8 (8) %
% time in the open arm ([3]; 3 mg/kg IP, 3 mg/kg): 5.2 ± 0.7 (8) %
% time in the open arm ([6]; 3 mg/kg IP, 3 mg/kg): 10.1 ± 1.8 (8) %
% time in the open arm ([4]; 3 mg/kg IP, 3 mg/kg): 5.2 ± 0.7 (8) %
inhibition of adenylate cyclase 1 [8]: capable of selectively inhibiting adenylate cyclase 1
